Test results published in US6727387B2, “Quaternary ammonium salts having a tertiary alkyl group” (Rohm and Haas Company, priority 2001, dated 2004).

How the values were obtained:
[1] = test system: Pseudomonas aeruginosa 13388; test: High resolution minimum inhibitory concentration (HRMIC) test, Gram-negative bacterium; type: cell-based; details: for Activity against Gram-negative test organism (in words): HRMIC test; for MIC: M9GY, 10^6 CFU/ml, 30° C., 24 hours, read-out: MIC (ppm) Average, Gram-negative
Method: (§1) The five alkylation products from Route B, as described in Table 1, were tested for their ability to inhibit the growth of a Gram-positive bacterium, Staphylococcus aureus 6538 and a Gram-negative bacterium, Pseudomonas aeruginosa 13388 in a high resolution minimum inhibitory concentration (HRMIC) test. Two of the compounds showing biological activity were also tested for activity against sulfate-reducing bacteria (SRB). HR MIC Test Method: Varying amounts of test compound dissolved in DMSO were added to […] in a 96-well microtiter plate. Ten-fold serial dilutions were performed on a Biomek 2000 Workstation to obtain a range of closely spaced concentrations of biocide as illustrated in Table 2. A cell suspension of either Pseudomonas aeruginosa 13388 or Staphylococcus aureus 6538, adjusted to provide 10^6 CFU/ml in each well, was added to each microtiter plate. Kathon® WT biocide and Hyamine® 3500 biocide (dimethyl benzyl ammonium chloride) were included in the test for comparison. The microtiter plates were incubated at 30° C. for 24 hours and were then checked for the presence or absence of microbial growth in each well. […] Each compound was evaluated in duplicate on three separate days. [table]

[2] = test system: Staphylococcus aureus 6538; test: High resolution minimum inhibitory concentration (HRMIC) test, Gram-positive bacterium; type: cell-based; details: for Activity against Gram-positive test organism (in words): HRMIC test; for MIC: M9GY, 10^6 CFU/ml, 30° C., 24 hours, read-out: MIC (ppm) Average, Gram-positive
Method: as §1

Compound | Activity against Gram-negative test organism (in words) [1] | MIC [1] [µg/mL] | Activity against Gram-positive test organism (in words) [2] | MIC [2] [µg/mL]
CC(C)(C)CC(C)(C)[N+](C)(C)C.[Br-] [TOA Br^−, N,N,N-Trimethyl t-octyl ammonium bromide] | showed no activity | > 1000 | showed no activity | > 1000
CC(C)(C)CC(C)(C)[N+](C)(C)C.[I-] [TOA I^−, N,N,N-Trimethyl t-octylammonium iodide] | showed no activity | > 1000 | showed no activity | > 1000
